Experimental data taken from patent US9399649B2, “Compounds for treating spinal muscular atrophy” (PTC Therapeutics Inc., priority 2012, dated 2016).

Key:
Smn protein = Smn protein assay in cultured cells (SMN HTRF); type: cell-based, human; details: SMA patient fibroblast cells (GM03813), 48 hours; for EC1.5x for Smn protein expression: 7-point concentration curve, concentration producing 1.5 times Smn protein vs DMSO vehicle; for maximum fold (Fold) increase of Smn protein: 7-point concentration data, relative to vehicle control
Method in brief: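 Smn protein measured by HTRF (anti-SMN d2/kryptate) in lysates of SMA patient fibroblasts after 48 h compound treatment, 7-point 3.16-fold dilutions, triplicates. The 665/620 nm ratio is blank-corrected to ΔF, then divided by the vehicle ΔF to give fold increase.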

[1] = tested on: full length SMN2 minigene mRNA containing SMN2 exon 7; experiment: SMN2 minigene mRNA splicing RT-qPCR assay in cultured cells; type: cell-based, human; details: Homo sapiens, HEK293-H; HEK293H cells stably transfected with SMN2-A minigene, 24 hours, 7-point concentration curve; concentration giving 1.5-fold full length SMN2 mRNA vs vehicle; read-out: EC1.5x for production of full length SMN2 mRNA
Method in brief: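 Read-out is minigene FL mRNA (exon 7 included) relative to vehicle, from efficiency-corrected ΔΔCt with GAPDH normalisation. Primers and probe span exon 7, exon 8 and luciferase, so endogenous SMN is not detected. Stable SMN2-A minigene HEK293H cells, 24 h compound exposure at 37 °C, 7-point curve in duplicate.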

| melting point [°C] | Compound | EC1.5x for Smn protein expression (Smn protein) | maximum fold (Fold) increase of Smn protein (Smn protein) | EC (1.5-fold) [1] [µM] |
| --- | --- | --- | --- | --- |
| 227 to 229 | Cc1cn2cc(-c3cc4ccc(C5CCN(C(C)C)CC5)cc4c(=O)o3)nc2c(C)n1 [Cpd 117, 3-(6,8-dimethylimidazo[1,2-a]pyrazin-2-yl)-7-[1-(propan-2-yl)piperidin-4-yl]-1H-isochromen-1-one] | *** (an EC1.5× between >0.3 nM and ≦1 nM is indicated by three stars (***)) | ***** (a fold increase >1.65 is indicated by five stars (*****)) | ≤ 0.1 |
| 225 to 227 | Cc1cn2cc(-c3cc4ccc(C5CCN(C6COC6)CC5)cc4c(=O)o3)nc2c(C)n1 [Cpd 119, 3-(6,8-dimethylimidazo[1,2-a]pyrazin-2-yl)-7-[1-(oxetan-3-yl)piperidin-4-yl]-1H-isochromen-1-one] | *** (an EC1.5× between >0.3 nM and ≦1 nM is indicated by three stars (***)) | ***** (a fold increase >1.65 is indicated by five stars (*****)) | 0.1 to 0.3 |
| 255 to 260 | CCN1CCN(c2ccc3cc(-c4cn5cc(C)ncc5n4)oc(=O)c3c2)C[C@@H]1C [Cpd 120, 7-[(3S)-4-ethyl-3-methylpiperazin-1-yl]-3-(6-methylimidazo[1,2-a]pyrazin-2-yl)-1H-isochromen-1-one] | **** (an EC1.5×≦0.3 nM is indicated by four stars (****)) | ***** (a fold increase >1.65 is indicated by five stars (*****)) | ≤ 0.1 |
| 250 to 255 | Cc1cn2cc(-c3cc4ccc(N5CCN(C)[C@@H](C)C5)cc4c(=O)o3)nc2cn1 [Cpd 121, 7-[(3S)-3,4-dimethylpiperazin-1-yl]-3-(6-methylimidazo[1,2-a]pyrazin-2-yl)-1H-isochromen-1-one] | **** (an EC1.5×≦0.3 nM is indicated by four stars (****)) | ***** (a fold increase >1.65 is indicated by five stars (*****)) | ≤ 0.1 |
| 279 to 285 | Cc1cn2cc(-c3cc4ccc(N5CCN(C)CC5)cc4c(=O)o3)nc2cn1 [Cpd 122, 3-(6-methylimidazo[1,2-a]pyrazin-2-yl)-7-(4-methylpiperazin-1-yl)-1H-isochromen-1-one] | **** (an EC1.5×≦0.3 nM is indicated by four stars (****)) | ***** (a fold increase >1.65 is indicated by five stars (*****)) | ≤ 0.1 |
| 290 to 292 | Cc1cn2cc(-c3cc4ccc(N5CCC(O)CC5)cc4c(=O)o3)nc2c(C)n1 [Cpd 123, 3-(6,8-dimethylimidazo[1,2-a]pyrazin-2-yl)-7-(4-hydroxypiperidin-1-yl)-1H-isochromen-1-one] | – | * (A maximum fold increase of ≦1.2 is indicated by one star (*)) | 1 to 3 |
| 274 to 276 | Cc1cn2cc(-c3cc4ccc(N5CCC(N(C)C)CC5)cc4c(=O)o3)nc2c(C)n1 [Cpd 124, 7-[4-(dimethylamino)piperidin-1-yl]-3-(6,8-dimethylimidazo[1,2-a]pyrazin-2-yl)-1H-isochromen-1-one] | **** (an EC1.5×≦0.3 nM is indicated by four stars (****)) | **** (a fold increase between >1.5 and ≦1.65 is indicated by four stars (****)) | ≤ 0.1 |
| 219 to 225 | Cc1cn2cc(-c3cc4ccc(N5CCN[C@H](C)C5)cc4c(=O)o3)nc2cn1 [Cpd 125, 3-(6-methylimidazo[1,2-a]pyrazin-2-yl)-7-[(3R)-3-methylpiperazin-1-yl]-1H-isochromen-1-one] | **** (an EC1.5×≦0.3 nM is indicated by four stars (****)) | ***** (a fold increase >1.65 is indicated by five stars (*****)) | ≤ 0.1 |
| 238 to 241 | CCN1CCN(c2ccc3cc(-c4cn5cc(C)ncc5n4)oc(=O)c3c2)C[C@H]1C [Cpd 126, 7-[(3R)-4-ethyl-3-methylpiperazin-1-yl]-3-(6-methylimidazo[1,2-a]pyrazin-2-yl)-1H-isochromen-1-one] | **** (an EC1.5×≦0.3 nM is indicated by four stars (****)) | **** (a fold increase between >1.5 and ≦1.65 is indicated by four stars (****)) | ≤ 0.1 |
| 243 to 248 | Cc1cn2cc(-c3cc4ccc(N5CCN(C)[C@H](C)C5)cc4c(=O)o3)nc2cn1 [Cpd 127, 7-[(3R)-3,4-dimethylpiperazin-1-yl]-3-(6-methylimidazo[1,2-a]pyrazin-2-yl)-1H-isochromen-1-one] | **** (an EC1.5×≦0.3 nM is indicated by four stars (****)) | ***** (a fold increase >1.65 is indicated by five stars (*****)) | ≤ 0.1 |
| 231 to 236 | Cc1cn2cc(-c3cc4ccc(N5CCN(C(C)C)CC5)cc4c(=O)o3)nc2cn1 [Cpd 128, 3-(6-methylimidazo[1,2-a]pyrazin-2-yl)-7-[4-(propan-2-yl)piperazin-1-yl]-1H-isochromen-1-one] | **** (an EC1.5×≦0.3 nM is indicated by four stars (****)) | ***** (a fold increase >1.65 is indicated by five stars (*****)) | ≤ 0.1 |
| 233 to 238 | CCN1[C@H](C)CN(c2ccc3cc(-c4cn5cc(C)ncc5n4)oc(=O)c3c2)C[C@@H]1C [Cpd 129, 7-[(3R,5S)-4-ethyl-3,5-dimethylpiperazin-1-yl]-3-(6-methylimidazo[1,2-a]pyrazin-2-yl)-1H-isochromen-1-one] | **** (an EC1.5×≦0.3 nM is indicated by four stars (****)) | ***** (a fold increase >1.65 is indicated by five stars (*****)) | ≤ 0.1 |
| 241 to 245 | Cc1cn2cc(-c3cc4ccc(N5C[C@@H](C)N(CCO)[C@@H](C)C5)cc4c(=O)o3)nc2cn1 [Cpd 130, 7-[(3R,5S)-4-(2-hydroxyethyl)-3,5-dimethylpiperazin-1-yl]-3-(6-methylimidazo[1,2-a]pyrazin-2-yl)-1H-isochromen-1-one] | **** (an EC1.5×≦0.3 nM is indicated by four stars (****)) | **** (a fold increase between >1.5 and ≦1.65 is indicated by four stars (****)) | ≤ 0.1 |
| 279 to 284 | Cc1cn2cc(-c3cc4ccc(N5C[C@@H](C)N(C)[C@@H](C)C5)cc4c(=O)o3)nc2cn1 [Cpd 131, 3-(6-methylimidazo[1,2-a]pyrazin-2-yl)-7-[(3R,5S)-3,4,5-trimethylpiperazin-1-yl]-1H-isochromen-1-one] | **** (an EC1.5×≦0.3 nM is indicated by four stars (****)) | ***** (a fold increase >1.65 is indicated by five stars (*****)) | ≤ 0.1 |
| 238 to 243 | CCN1CCN(c2ccc3cc(-c4cn5cc(C)nc(C)c5n4)oc(=O)c3c2)C[C@@H]1C [Cpd 135, 3-(6,8-dimethylimidazo[1,2-a]pyrazin-2-yl)-7-[(3S)-4-ethyl-3-methylpiperazin-1-yl]-1H-isochromen-1-one] | **** (an EC1.5×≦0.3 nM is indicated by four stars (****)) | ***** (a fold increase >1.65 is indicated by five stars (*****)) | ≤ 0.1 |
| 277 to 282 | Cc1cn2cc(-c3cc4ccc(N5CCN(C6CCC6)[C@@H](C)C5)cc4c(=O)o3)nc2c(C)n1 [Cpd 136, 7-[(3S)-4-cyclobutyl-3-methylpiperazin-1-yl]-3-(6,8-dimethylimidazo[1,2-a]pyrazin-2-yl)-1H-isochromen-1-one] | **** (an EC1.5×≦0.3 nM is indicated by four stars (****)) | ***** (a fold increase >1.65 is indicated by five stars (*****)) | ≤ 0.1 |
| 249 to 254 | CCCN1CCN(c2ccc3cc(-c4cn5cc(C)nc(C)c5n4)oc(=O)c3c2)C[C@@H]1C [Cpd 137, 3-(6,8-dimethylimidazo[1,2-a]pyrazin-2-yl)-7-[(3S)-3-methyl-4-propylpiperazin-1-yl]-1H-isochromen-1-one] | **** (an EC1.5×≦0.3 nM is indicated by four stars (****)) | ***** (a fold increase >1.65 is indicated by five stars (*****)) | ≤ 0.1 |
| 266 to 271 | Cc1cn2cc(-c3cc4ccc(N5CCN(C(C)C)[C@@H](C)C5)cc4c(=O)o3)nc2c(C)n1 [Cpd 138, 3-(6,8-dimethylimidazo[1,2-a]pyrazin-2-yl)-7-[(3S)-3-methyl-4-(propan-2-yl)piperazin-1-yl]-1H-isochromen-1-one] | *** (an EC1.5× between >0.3 nM and ≦1 nM is indicated by three stars (***)) | **** (a fold increase between >1.5 and ≦1.65 is indicated by four stars (****)) | 0.1 to 0.3 |
